From patent US5686102A, “Pharmacological composition for topical administration” (Lancaster Group AG, priority 1992, dated 1997) come the findings set out here.

SMILES strings stand for the structures. Read-outs that look alike come from different tables or passages of the source.

A short description of data set [1]: Critical solubility temperature (CST) in n-hexane. The source says:
FIG. 1 is a diagram of the critical solubility temperatures (CST) of perfluorocarbon mixtures in n-hexane using perfluorodecalin as a starting point
FIG. 2 is a diagram of the critical solubility temperatures of perfluorocarbon mixtures in n-hexane using F-octylbromide as a starting point.

A short description of data set [2]: Vapour pressure of fluorocarbons at 37° C. It counts as physicochemical.
The nature of data set [3]: O2 solubility of fluorocarbons. In kind it is physicochemical.
A short description of data set [4]: Penetration into skin and residence time/release of labelled encapsulated fluorocarbons, animal experiments. In kind it is in vivo.
Source text: By means of separate investigations, it was possible to determine the dependence of the penetration rates and the depth of penetration on the particle size of the aggregates experimentally in animal experiments using labelled encapsulated fluorocarbons. […] The choice of fluorocarbons or mixtures thereof according to their lipid solubility (represented by their critical solubility temperature CST in n-hexane) permits, as a further important criterion, the control of the residence time in the tissue. […] With the aid of fluorocarbon mixtures, in this way systems having desired CST values, i.e. lipid and membrane solubilities, with respect to the intended use can be prepared in a controlled manner.
Where [5] appears, read: critical solubility temperature in n-hexane.

The compound `FC(F)(F)C(F)(F)C(F)(F)C(F)(F)C=CC(F)(F)C(F)(F)C(F)(F)C(F)(F)F` [Bis-F(butyl)ethene, bis-F(butyl)ethene] came in with a CST in data set [1] (setting [5]) of 22.5 °C.

Take `FC1(F)OC(F)(F)C(F)(F)N(C(F)(F)C2(F)C(F)(F)C(F)(F)C(F)(F)C(F)(F)C2(F)F)C1(F)F` [F-cyclohexylmethylmorpholine]: the CST in data set [1] (setting [5]) worked out at 38.5 °C. Further, the “Vapour Pressure” value in data set [2] was determined as 4 mm Hg. In data set [3], the O2 solubility is given as 42 ml of O2 /100 ml of Fc.

In the case of `FC(F)(F)C(F)(F)C(F)(F)C(F)(F)C(F)(F)C(F)(F)OC(F)(F)C(F)(F)C(F)(F)C(F)(F)C(F)(F)C(F)(F)F` [F-dihexyl ether], the CST in data set [1] (setting [5]) came to 59 °C.

Turning to `FC(F)(F)C(F)(F)C(F)(F)C(F)(F)C(F)(F)C(F)(F)F` [F-hexane, perfluorohexane], in data set [4] (in vivo), the “release from the tissue” value is “released correspondingly more rapidly from the tissue”.

Turning to `FC(F)(F)C1(F)C(F)(F)C(F)(F)C(F)(F)C(F)(F)C1(F)F` [F-methylcyclohexane, perfluoromethylcyclohexane], the CST in data set [1] (setting [5]) came out at 8.2 °C.

`FC(F)(F)C(F)(F)C(F)(F)C(F)(F)N(C(F)(F)C(F)(F)C(F)(F)C(F)(F)F)C(F)(F)C(F)(F)C(F)(F)C(F)(F)F` [F-tributylamine, perfluorotributylamine] had a CST in data set [1] (setting [5]) of 59 °C. Besides, the “residence time in the tissue” value in data set [4] (in words, related to CST / lipid solubility) is “relatively large residence time”.

Turning to `FC(F)(F)C(F)(F)C(F)(F)N(C(F)(F)C(F)(F)C(F)(F)F)C(F)(F)C(F)(F)C(F)(F)F` [F-tripropylamine], in data set [1], the CST amounted to 43 °C.

In the case of `FC(F)(F)C(F)(F)C(F)(F)C(F)(F)C1(F)OC(F)(F)C(F)(F)C1(F)F` (centres unmarked) [Perfluorobutyltetrahydrofuran, perfluorobutyltetrahydrofuran], in data set [1] (setting [5]), the CST stood at 29 °C. In data set [2], the “Vapour Pressure” value is on record as 51 mm Hg. In addition, in data set [4] (in words, compared with perfluorotributylamine), the “release from the tissue” value was “released correspondingly more rapidly from the tissue”. In data set [3], the O2 solubility is 52 ml of O2 /100 ml of Fc.

In data set [1], `FC1(F)C(F)(F)C(F)(F)C2(F)C(F)(F)C(F)(F)C(F)(F)C(F)(F)C2(F)C1(F)F` (centres unmarked) [Perfluorodecalin, perfluorodecalin] registered a CST of 22 °C. Also, the “release from the tissue” value in data set [4] (in vivo) is “released correspondingly more rapidly from the tissue”.

Take `FC(F)(F)C(F)(F)C(F)(F)C(F)(F)C(F)(F)C(F)(F)C(F)(F)C(F)(F)Br` [Perfluorooctyl bromide, perfluorooctyl bromide]: in data set [1], the CST is -24.5 °C.
